From US5780642A, “Imidazole derivatives as therapeutic agents” (KNOLL Aktiengesellschaft, priority 1993, dated 1998)
Counter-ions that a name gives are not always drawn. Like-named read-outs stand apart in the source and are kept apart here.

What was measured:
platelet aggregation = details: cited from earlier work
[1] = tested on: Carrageenan-induced pleurisy (migrating leukocytes); test: Carrageenan-induced pleurisy in rats; type: in vivo; details: rat, p.o. at time of challenge and 24h and 48h thereafter; 10 mg/kg
Method: The most advantageous compounds of formula I were active in Tests A and B and also in the following test. Carrageenan-induced pleurisy in rats was carried out as described by Ackerman et al. J. Pharmacol. Exp. Therap. 1980, 215, 588-595. Migrating leukocytes were harvested by lavage of the thoracic cavity 72h after injection of 0.3 ml 1% λcarrageenan in sterile isotonic saline. Test compounds were administered p.o. at the time of challenge and 24h and 48 h thereafter.

[2] = tested on: Carrageenan-induced rat paw oedema; test: Test B: Carrageenan-induced rat paw oedema test; type: in vivo; details: 100 mg/kg oral; active = 20% or greater inhibition of paw oedema in at least two out of three tests
Method: Test B was carried out in the following way: Carrageenan-induced rat paw oedema test Female rats, weight range 125-150 g were fasted overnight. One of the hind legs of each animal was marked with a line at the connection between the cuboid/navicular and calcaneus/talus bones. Groups of six rats were orally dosed at 10 ml/kg, in random order, with a given dose of the test compound given as a solution or suspension in 10% (w/v) aqueous acacia solution. One hour after dosing, 0.1 ml of 1% (w/v) sterile carrageenan λ in normal saline was injected deeply into the plantar surface of the marked hind foot of each rat. The volume of the foot (up to the marked line) was measured immediately after injection using duplicate water displacement readings. Three hours after injection the foot volume was measured again and the percentage increase in foot volume relative to the initial reading was calculated. The increase in foot volume (i.e. the degree of oedema) in drug treated animals when compared with that in the drug untreated control gave the degree of inhibition of paw oedema by the drug. Compounds were considered to be active in this test if they produced a 20% or greater inhibition of paw oedema in at least two out of three tests after oral dosing at 100 mg/kg. Statistical significance was assessed using the Student's t test for single dose studies and Dunnett's test for multiple dose studies. More advantageous compounds were active in both Tests A and B.

[3] = tested on: Zymosan Stimulated Macrophages (arachidonic acid release); test: Test A: Inhibition of Arachidonic Acid Release from Zymosan Stimulated Macrophages; type: cell-based, mouse (female MF1 mice); details: Mus musculus, Macrophage, read-out: Test A IC50
In short: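 Peritoneal macrophages from female MF1 mice, labelled overnight with [3H]-arachidonic acid (1.6 μCi/ml), then exposed to compound 24 h unstimulated and re-dosed with zymosan stimulus for 5 h at 37 °C. Released radioactivity counted by scintillation; spontaneous release subtracted; IC50 from six concentrations (1–100 μM), quadruplicate wells.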

[4] = tested on: lymphocyte proliferation (BALB/c responder and C57BL/6 stimulator spleen cells); test: Test C: Mixed Lymphocyte Reaction; type: cell-based, mouse (BALB/c and C57BL/6); details: Mus musculus, final concentration, read-out: IC50 (50% inhibition of the immune response)
Method: A mixed lymphocyte reaction (MLR) occurs when lymphocytes from two genetically dissimilar individuals, or inbred strains of mice are cultured together. An MLR results in the activation and proliferation of lymphocytes, which is measured by the incorporation of radiolabelled thymidine into the cellular DNA synthesised during cell division. A `one-way` MLR is used to determine the immunosuppressive activity of test compounds in vitro. In this reaction one population of spleen cells serves as the stimulator cells and is treated with mitomycin C to prevent cell division. Spleen cells from a second allogeneic population (responder cells) are untreated and when mixed with the stimulator cells are able to undergo division which is measured. The degree of proliferation is measured in the presence and absence of test compound to assess the immunosuppressive activity of the compound. The techniques for carrying out lymphocyte proliferation assays including MLRs are well known, eg Bradley, pages 156-166, in Mishell and Shiigi, Eds. Selected Methods in Cellular Immunology (Freeman, San Francisco, 1980); and Battisto et al, methods in Enzymology 1987; 150: 83-91. Various slight modifications of these techniques are in use and that used herein is described in Gibb, Webber and Bowen, J Immunological Methods 1985; 81: 107-113. The immunomodulant activity of the preferred compounds was determined in a mixed lymphocyte reaction (Test C) in the following manner: Mixed Lymphocyte Reaction Cell suspensions obtained from the spleens of female BALB/c and C57BL/6 strain mice of between 6 and 9 weeks of age were used as sources of responder and stimulator cells respectively. The mice were killed using a rising concentration of CO2 and the spleens removed aseptically and teased using a scalpel and forceps to produce a single cell suspension in Hanks balanced salt solution (HBSS). The suspensions were filtered through cell strainers (Falcon), sedimented by centrifugation and resuspended in Tris-buffered ammonium chloride pH 7.2 (medium D) to lyse the erythrocytes. The cells were sedimented again and washed twice in HBSS before resuspending in complete RPMI 1640 tissue culture medium (medium E). The C57BL/6 cells were resuspended to 9 mls per spleen and a solution of mitomycin C at 400 μg/ml in medium E added to give a final concentration of 40 μg/ml. After incubation of the C57BL/6 cells at 37° C. for 30 minutes in an atmosphere of 5% CO2 and 95% air, the cells were sedimented and washed 3 times in medium E. Both cell suspensions were diluted in medium E to 5×10^6 cells/ml. 100 μl of each of the responder and stimulator cell suspensions were aliquoted into the wells of 96 well flat bottom microtitre plates containing 50 μl of test compound at an appropriate dilution (initially 50 μM diluted in medium E from a stock solution at 100 mM in dimethyl sulphoxide) giving a final test compound concentration of 10 μM (final dilution). […] After four days of culture at 37° C. in a humidified atmosphere of 5% CO2 and 95% air, 1 μCi of tritiated thymidine in 20 μl of medium E was added to each well and the plates incubated for a further 24 hours. […] The filters were transferred to vials to which 2 mls of Packard Emulsifier-Safe scintillation fluid was added and the radioactivity from the incorporated thymidine was counted in a Packard liquid scintillation counter. […] The data were analysed to determine the percentage inhibition of lymphocyte proliferation by the test compound. […]

[5] = cited from earlier work
[6] = Indian Journal of Pharmacology 1973, 5, 428 / Pfl. Krankh. 1975, 3, 149; cited from earlier work
[7] = inhibition of arachidonic acid release, zymosan stimulated mouse peritoneal macrophages, tested at 100, 50, 20, 10, 5 and 1 μM, ≤100 μM considered active

IC50 [3, 7] [µM]	SMILES	activity in carrageenan-induced pleurisy at 10 mg/kg [1]	activity in Test B (inhibition of paw oedema) [2]	IC50 [4] [µM]	also measured
–	CC(CCn1ccnc1)NCc1ccccc1 (centres unmarked) [Compound A]	–	–	–	inhibitory effect on platelet aggregation in vitro (platelet aggregation): inhibitory effect on platelet aggregation in vitro
26	Cl.Cl.Clc1ccc(OCCNCCCn2ccnc2)cc1 [Example 2, N-[2-(4-chlorophenoxy)ethyl]-3-(imidazol-1-yl)propylamine dihydrochloride]	active	active	–	–
29	CC(C)(CNCCCn1ccnc1)Oc1ccccc1Cl [Example 4, 2-(2-Chlorophenoxy)-3'-(imidazol-1-yl)-2-methyldipropylamine]	–	active	–	–
39	Cl.Cl.Fc1ccc(OCCNCCCn2ccnc2)cc1 [Example 7, N-[2-(4-Fluorophenoxy)ethyl]-3-(imidazol-1-yl)propylamine dihydrochloride]	–	active	–	–
14	Cc1nccn1CCCNCCOc1ccc(Cl)cc1 [Example 8, N-[2-(4-Chlorophenoxy)ethyl]-3-(2-methylimidazol-1-yl)propylamine]	–	active	2.4	–
27	CC(CNCCCn1ccnc1)Oc1ccc(Cl)cc1 (centres unmarked) [Example 15, 2-(4-chlorophenoxy)-3'-(imidazol-1-yl)dipropylamine dihydrochloride]	active	active	–	–
7	Clc1ccc(OCCNCCCCCn2ccnc2)cc1 [Example 16, N-[2-(4-chlorophenoxy)ethyl]-5-(imidazol-1-yl)pentylamine dihydrochloride hemihydrate]	active	–	2.8	–
12	CC(C)(COc1ccc(Cl)cc1)NCCCn1ccnc1.Cl.Cl [Example 17, N-[2-(4-chlorophenoxy)-1,1-dimethylethyl]-3-(imidazol-1-yl)propylamine dihydrochloride]	active	–	5.9	–
–	CC(C)(CSc1ccc(Cl)cc1)NCCCn1ccnc1 [Example 19, N-[2-(4-Chlorophenylthio)-1,1-dimethylethyl]-3-(imidazol-1-yl)propylamine dihydrochloride]	–	–	1.7	IC50 [3]: 8 µM
32	CN(CCCn1ccnc1)CCOc1ccc(Cl)cc1 [Example 64, N-[2-(4-chlorophenoxy)ethyl]-3-(imidazol-1-yl)-N-methylpropylamine]	active	active	–	–
25	CC(C)(NCCCc1ncc[nH]1)c1ccccc1 [Example 87, 3-(imidazol-2-yl)-N-(1-methyl-1-phenylethyl)propylamine]	–	–	5.8	–
28	Cl.Cl.Clc1ccc2c(c1)CCC2NCCCn1ccnc1 (centres unmarked) [Example 88, N-(5-chloroindan-1-yl)-3-(imidazol-1-yl)propylamine dihydrochloride]	active	active	–	–
–	CCC(NCC(C)N1CCOCC1)c1ccc(Cl)c(Cl)c1 (stereo not drawn) [N-[2-(4-Morpholino)propyl]-α-ethyl-3,4-dichlorobenzylamine]	–	–	–	undesirable side-effects in mice [5]: wide range of undesirable side-effects in mice; antiinflammatory activity (alleged) [6]: alleged to have antiinflammatory activity
